In KR20130087877A, “피부미백, 항산화 및 ppar 활성을 갖는 신규 화합물 및 이의 의학적 용도” (부산대학교 산학협력단, priority 2012, dated 2013):

Experiments:
[1] = tested on: mushroom-derived tyrosinase (버섯 유래 티로시나아제); assay: Tyrosinase inhibition (dopachrome formation from L-tyrosine); type: biochemical; conditions: 1 mM L-tyrosine, pH 6.5, 25℃, 30 min, 492 nm; compared with positive control kojic acid; Figure 2
[2] = tested on: ROS generated in vascular endothelial cells (혈관내피세포(YPEN-1)); assay: In vitro ROS scavenging activity, DCFDA assay in YPEN-1 vascular endothelial cells; type: cell-based, rat; conditions: YPEN-1 cells, SIN-1 50 μM pretreatment 1 h, compared with positive control Trolox, Figure 1
[3] = target: T1, PPARα (Homo sapiens, UniProt Q07869); assay: PPAR analysis, PPARα (Fluormone Pan-PPAR Green competition, competitive activation rate); conditions: final sample concentration 100 μM; compared with positive control fenofibrate; Figure 3
T1 sequence (Q07869 239-466 limits assumed): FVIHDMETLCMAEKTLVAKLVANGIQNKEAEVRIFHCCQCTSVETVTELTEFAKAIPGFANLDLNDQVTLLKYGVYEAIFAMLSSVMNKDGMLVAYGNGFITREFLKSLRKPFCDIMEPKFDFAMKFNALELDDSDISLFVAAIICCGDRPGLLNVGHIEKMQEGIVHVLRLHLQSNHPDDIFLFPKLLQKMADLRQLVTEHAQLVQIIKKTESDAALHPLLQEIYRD

[4] = tested on: PPARα and PPARγ (PPARα 및 PPARγ); assay: PPAR analysis, PPARα and PPARγ taken together; type: binding; conditions: final sample concentration 100 μM
[5] = target: T2, PPARγ (Homo sapiens, UniProt P37231); assay: PPAR analysis, PPARγ (Fluormone Pan-PPAR Green competition, competitive activation rate); type: binding; conditions: final sample concentration 100 μM; compared with positive control rosiglitazone; Figure 4
T2 sequence (P37231 238-503 limits assumed): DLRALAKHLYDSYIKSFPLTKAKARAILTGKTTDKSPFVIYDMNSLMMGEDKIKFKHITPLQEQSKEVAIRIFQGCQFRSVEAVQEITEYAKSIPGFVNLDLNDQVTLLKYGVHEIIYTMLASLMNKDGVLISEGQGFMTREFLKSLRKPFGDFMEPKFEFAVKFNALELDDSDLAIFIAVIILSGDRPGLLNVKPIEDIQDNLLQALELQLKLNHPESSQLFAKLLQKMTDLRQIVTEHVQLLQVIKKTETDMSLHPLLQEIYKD

SMILES | ROS scavenging effect [2] | PPARα activation (competitive activation rate), in words [3] | other results
NC(=O)N/N=C/c1ccc(O)cc1 [화합물 1, (E)-2-(4-Hydroxybenzylidene)hydrazinecarboxamide] |  |  | tyrosinase inhibitory activity [1]: 양성대조군인 코지산(Kojic Acid)과 유사한 티로시네이즈 억제 활성
NC(=O)N/N=C/c1ccc(O)c(O)c1 [화합물 2, (E)-2-(3,4-Dihydroxybenzylidene)hydrazinecarboxamide] | 양성대조군인 트롤록스(Trolox)만큼 소거하는 효과가 큰 |  | 
NC(=O)N/N=C/c1ccccc1O [화합물 10, (E)-2-(2-Hydroxybenzylidene)hydrazinecarboxamide] |  | 양성대조군인 페노피브레이트보다 매우 뛰어난 PPARα 활성화제 | 
CC(=O)N/C(=C\c1ccc(O)c(O)c1)C(=O)O [화합물 14, (Z)-2-Acetamido-3-(3,4-dihydroxyphenyl)acrylic acid] | 양성대조군인 트롤록스(Trolox)만큼 소거하는 효과가 큰 |  | 
CC(=O)N/C(=C\c1ccc(O)cc1O)C(=O)O [화합물 15, (Z)-2-Acetamido-3-(2,4-dihydroxyphenyl)acrylic acid] |  | 양성대조군인 페노피브레이트보다 매우 뛰어난 PPARα 활성화제 | simultaneous activation of PPARα and PPARγ [4]: PPARα 및 PPARγ를 동시에 활성화할 수 있는 활성화제; PPARγ activation (competitive activation rate), in words [5]: 양성대조군인 로지글리타존보다 뛰어난 PPARγ 활성화제
COc1cc(/C=C(\NC(C)=O)C(=O)O)ccc1O [화합물 16, (Z)-2-Acetamido-3-(4-hydroxy-3-methoxyphenyl)acrylic acid] | 양성대조군인 트롤록스(Trolox)만큼 소거하는 효과가 큰 |  | 
CCOc1cc(/C=C(\NC(C)=O)C(=O)O)ccc1O [화합물 17, (Z)-2-Acetamido-3-(3-ethoxy-4-hydroxyphenyl)acrylic acid] | 양성대조군인 트롤록스(Trolox)만큼 소거하는 효과가 큰 |  | 
CC(=O)N/C(=C\c1ccccc1O)C(=O)O [화합물 23, (Z)-2-Acetamido-3-(2-hydroxyphenyl)acrylic acid] |  | 양성대조군인 페노피브레이트보다 매우 뛰어난 PPARα 활성화제 | simultaneous activation of PPARα and PPARγ [4]: PPARα 및 PPARγ를 동시에 활성화할 수 있는 활성화제; PPARγ activation (competitive activation rate), in words [5]: 양성대조군인 로지글리타존보다 뛰어난 PPARγ 활성화제
COc1cc(/C=C(\NC(C)=O)C(=O)O)cc(OC)c1O [화합물 25, (Z)-2-Acetamido-3-(4-hydroxy-3,5-dimethoxyphenyl)acrylic acid] | 양성대조군인 트롤록스(Trolox)만큼 소거하는 효과가 큰 |  | 
